# Source: patent publication US10034896B2, “Compositions and methods for treatment of osteoporosis and other indications” (priority 2012, dated 2018)
# Key:
# [1] = Nitric oxide gas bubbled through carrier, weight gain; assay type: physicochemical; conditions: NO gas bubbled 40 hr, 25 ° C.
# Method: This example illustrates one technique for preparing a composition in accordance with one embodiment of the invention. An accurate amount of a carrier (HNC 167-62) (see below) was introduced into a system. The carrier weight used in these experiments was approximately 250 g and the vessel size was 500 ml. The vessel was equipped with a mechanical stirrer, gas inlet, and gas outlet and was previously purged with argon for about an hour. The temperature of the carrier was kept at about 25-30° C. NO gas regulated at 5 psi (1 psi is about 6,900 Pa) and was then introduced at a controlled rate of about 1 bubble/s with continuous stirring. […] After 6 hours, the weight of the carrier had increased by 0.15%, by 12 hours by 0.25%, and by 24 hours by 0.56%. These increases in weight were believed to be significant considering the relative small molecular weight of NO versus the carrier. […] The carrier also can solidify upon cooling if the carrier is initially a solid at lower temperature.
# Each carrier was taken in a 500 mL three necked flask equipped with a mechanical stirrer, gas inlet and a gas outlet. The system was purged with argon for one hour at room temperature (25° C.). Then nitric oxide gas was bubbled into the system. Then, nitric oxide gas was bubbled through carrier for stipulated amount of time. The changes in weight and color were noted. […]
# [2] = system: micro-capillary blood flow to skin; experiment: Laser Doppler study in closed Hilltop chamber on forearm, Example 5; assay type: in vivo, human; conditions: applied to the skin at 1/10% in alcohol
# Excerpt: The formulation used in these studies contained nitric oxide dispersed in a lipid matrix. […] Nitric oxide is a very rapid acting molecule, and these studies used a system that employed laser Doppler with a covered chamber. The formulation was placed into the chamber and then attached to the skin by an adhesive layer on the covering. This provided a stable measuring device as determined by multiple normal evaluations of the capillary blood flow without treatment of nitric oxide.
# A known positive control, methyl nicotinate, was applied to the skin at a concentration of 1/10% in alcohol. […] The vascular dynamics are such that when the blood vessels dilate physical parameters follow Bernoulli's law. […] The laser Doppler device accurately measured these parameters.
# In these studies, the participants were healthy females aged 30 to 55 years. They were in good health as determined by the medical history and were not taking any prescription medications. All study participants read and signed the informed consent statement prior to any study procedures being performed. […]
# A Moor Instruments DRT4 Laser Doppler Blood Flow Monitor (Devon, England) was used in these studies. The laser Doppler technique measured blood flow in the microcapillaries of the skin that are close to the skin surface and the blood flow in underlying arterioles and venules that help to regulate skin temperature. […]
# [3] = system: capillary circulation of the skin; experiment: Laser Doppler study of creams in five human subjects, Example 7; assay type: in vivo; conditions: positive control formulation containing 0.1% methyl nicotinate
# Excerpt: This example illustrates delivery of nitric oxide formulations to five human subjects, using procedures and formulations similar to those discussed in Example 5. Each person served as their own control for the testing. A Moor Instruments Laser Doppler was used to determine circulation. […] The formulations used produce positive, almost immediate results when applied to the skin which, in these studies, was manifested by vasodilatation of the cutaneous vascular system.
# For each subject, the following creams were applied: a negative control formulation (containing no NO), 0.010 gram of a 10,000 ppm NO formulation, 0.020 gram of a 10,000 ppm NO formulation, and a positive control formulation containing 0.1% methyl nicotinate. The formulations were prepared using procedures similar to those discussed in Example 1.
Structure (SMILES),% Wt. gain [1],laser Doppler response to positive control [2],vasodilatation (laser Doppler) [3]
"OCCCO [1,3-Propanediol, 1,3-propanediol]",0.09%,,
COC(=O)c1cccnc1 [methyl nicotinate],,rapid response typical of the vasodilator,vasodilatation was observed
